Columns and labels:
Assay in all cases: biochemical
Assay type in all cases: binding
HLA DRB1*03:01 = HLA DRB1*03:01 (Homo sapiens, UniProt P01903+P01911, A100K/A102G/A103R/A169T/F55Y/I96L/K41T/L162R/M171V/P40S/Q125H/Q178H/Q39Y/R42S/S66N/T106N/T262R/W38E/Y61H); settings: binder threshold 1,000 nM, read-out: In vitro (IC50 nM) DRB1*03:01
HLA DRB1*04:05 = HLA DRB1*04:05 (Homo sapiens, UniProt P01903+P01911, A100R/A169T/D86S/F76Y/I96L/K127E/L162R/M171V/N62H/P40V/Q125Y/R42H/S133A/S149N/S66Y/V115G/V209L/W38E); settings: binder threshold 1,000 nM, read-out: In vitro (IC50 nM) DRB1*04:05
HLA DRB1*11:01 = HLA DRB1*11:01 (Homo sapiens, UniProt P01903+P01911, A100R/A169T/A87E/I96F/K41T/L162R/M171V/P40S/Q125H/Q178H/Q39Y/Q99D/R42S/S66Y/T262R/V115G/W38E); settings: binder threshold 1,000 nM, read-out: In vitro (IC50 nM) DRB1*11:01
Chain of HLA DRB1*11:01 (P01903 26-254, other chains not shown): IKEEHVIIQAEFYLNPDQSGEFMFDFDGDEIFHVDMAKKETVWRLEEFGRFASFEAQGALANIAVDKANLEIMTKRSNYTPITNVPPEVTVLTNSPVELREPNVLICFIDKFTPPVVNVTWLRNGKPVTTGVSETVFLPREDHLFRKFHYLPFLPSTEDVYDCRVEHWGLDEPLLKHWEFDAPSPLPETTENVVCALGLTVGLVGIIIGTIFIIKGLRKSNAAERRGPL
HLA DRB1*13:02 = HLA DRB1*13:02 (Homo sapiens, UniProt P01903+P01911, A100E/A169T/K41T/L162R/M171V/P40S/Q125H/Q178H/Q39Y/Q99D/R42S/S66N/T262R/V115G/W38E/Y61H); settings: binder threshold 1,000 nM, read-out: In vitro (IC50 nM) DRB1*13:02
Chain of HLA DRB1*13:02 (P01903 26-254 limits assumed, other chains not shown): as the sequence (P01903 26-254, other chains not shown) above
HLA DRB1*09:01 = HLA DRB1*09:01 (Homo sapiens, UniProt P01903+P01911, A100R/A103E/D57H/D86V/F55Y/F60I/F76Y/I96F/K127E/L162R/M171V/P40D/Q125H/Q99R/R33Q/R42F/S133A/S66N/T210M/V115G/W38K/Y107V/Y59G/Y89S); settings: binder threshold 1,000 nM, read-out: In vitro (IC50 nM) DRB1*09:01
HLA DRB1*08:02 = HLA DRB1*08:02 (Homo sapiens, UniProt P01903+P01911, A100R/A103L/A169T/F76Y/H45Y/I96F/K41T/L162R/M171V/P40S/Q125H/Q178H/Q39Y/Q99D/R218S/R42G/S66Y/V115G/W38E); settings: binder threshold 1,000 nM, read-out: In vitro (IC50 nM) DRB1*08:02
HLA DRB1*12:01 = HLA DRB1*12:01 (Homo sapiens, UniProt P01903+P01911, A100R/A169T/D57E/D86V/F55L/H45Y/K41T/L162R/M171V/P40S/Q125H/Q178H/Q39Y/Q99D/R42G/S66L/T262R/V114A/V67L/W38E/Y59H/Y61H/Y89S); settings: binder threshold 1,000 nM, read-out: In vitro (IC50 nM) DRB1*12:01
HLA DRB1*04:01 = HLA DRB1*04:01 (Homo sapiens, UniProt P01903+P01911, A100K/A169T/F76Y/I96L/K127E/L162R/M171V/N62H/P40V/Q125Y/R42H/S133A/S149N/S66Y/V115G/V209L/W38E); settings: binder threshold 1,000 nM, read-out: In vitro (IC50 nM) DRB1*04:01
HLA DRB1*07:01 = HLA DRB1*07:01 (Homo sapiens, UniProt P01903+P01911, A100R/A102G/A103Q/D57E/D86V/E43K/F76Y/K127E/L162R/M171V/P40G/Q125H/Q99D/R33Q/R42Y/R54Q/S133A/S66F/T210M/V115G/Y107V/Y59L/Y89S); settings: binder threshold 1,000 nM, read-out: In vitro (IC50 nM) DRB1*07:01
HLA DRB1*01:01 = HLA DRB1*01:01 (Homo sapiens, UniProt P01903+P01911, A100R/D57E/F55L/F60I/F76Y/I96L/L162R/M171V/P40L/Q125E/R42F/V115G/Y59C); settings: binder threshold 1,000 nM, read-out: In vitro (IC50 nM) DRB1*01:01
HLA DRB1*15:01 = HLA DRB1*15:01 (Homo sapiens, UniProt P01903+P01911); settings: binder threshold 1,000 nM, read-out: In vitro (IC50 nM) DRB1*15:01

Chain of HLA DRB1*03:01 (P01903 26-254, other chains not shown): as above

CC[C@H](C)[C@H](NC(=O)[C@@H]1CCCN1C(=O)[C@H](CCSC)NC(=O)[C@@H](N)CC(C)C)C(=O)N[C@@H](CC(C)C)C(=O)N[C@H](C(=O)N[C@@H](CC(C)C)C(=O)N[C@H](C(=O)N[C@@H](CCCNC(=N)N)C(=O)N[C@@H](C)C(=O)N[C@@H](CC(C)C)C(=O)N[C@H](C(=O)N[C@@H](C)C(=O)N[C@@H](CCC(=O)O)C(=O)N[C@@H](CO)C(=O)O)[C@@H](C)O)[C@@H](C)O)[C@@H](C)O [NSP12_49]
IC50 (HLA DRB1*03:01): 12100 nM | IC50 (HLA DRB1*04:05): 367 nM | IC50 (HLA DRB1*11:01): 37 nM | IC50 (HLA DRB1*13:02): 409 nM | IC50 (HLA DRB1*09:01): 123 nM | IC50 (HLA DRB1*08:02): 283 nM | IC50 (HLA DRB1*12:01): 131 nM | IC50 (HLA DRB1*04:01): 20 nM | IC50 (HLA DRB1*07:01): 15 nM | IC50 (HLA DRB1*01:01): 136 nM | IC50 (HLA DRB1*15:01): 37 nM

CC(C)C[C@H](NC(=O)[C@H](C)NC(=O)[C@H](CCCNC(=N)N)NC(=O)[C@@H](NC(=O)[C@H](CC(C)C)NC(=O)[C@@H](N)[C@@H](C)O)[C@@H](C)O)C(=O)N[C@H](C(=O)N[C@@H](C)C(=O)N[C@@H](CCC(=O)O)C(=O)N[C@@H](CO)C(=O)N[C@@H](Cc1c[nH]cn1)C(=O)N[C@H](C(=O)N[C@@H](CC(=O)O)C(=O)N[C@H](C(=O)N[C@@H](CC(=O)O)C(=O)O)[C@@H](C)O)C(C)C)[C@@H](C)O [NSP12_50]
IC50 (HLA DRB1*03:01): 1640 nM | IC50 (HLA DRB1*04:05): 99 nM | IC50 (HLA DRB1*11:01): 301 nM | IC50 (HLA DRB1*09:01): 59 nM | IC50 (HLA DRB1*08:02): 501 nM | IC50 (HLA DRB1*12:01): 4490 nM | IC50 (HLA DRB1*04:01): 4.1 nM | IC50 (HLA DRB1*07:01): 14 nM | IC50 (HLA DRB1*01:01): 2100 nM | IC50 (HLA DRB1*15:01): 1290 nM

CC[C@H](C)[C@H](NC(=O)[C@@H](NC(=O)[C@@H]1CCCN1C(=O)[C@@H](NC(=O)[C@@H](NC(=O)[C@H](CC(N)=O)NC(=O)[C@H](CCCNC(=N)N)NC(=O)[C@H](CCCCN)NC(=O)[C@@H](NC(=O)[C@H](Cc1ccc(O)cc1)NC(=O)[C@H](C)NC(=O)[C@H](Cc1ccccc1)NC(=O)[C@H](CC(C)C)NC(=O)[C@H](C)N)[C@@H](C)O)C(C)C)[C@@H](C)CC)[C@@H](C)O)C(=O)N[C@H](C(=O)O)[C@@H](C)O [NSP12_106]
IC50 (HLA DRB1*03:01): 709 nM | IC50 (HLA DRB1*04:05): 13000 nM | IC50 (HLA DRB1*11:01): 6.6 nM | IC50 (HLA DRB1*13:02): 32 nM | IC50 (HLA DRB1*09:01): 52 nM | IC50 (HLA DRB1*08:02): 190 nM | IC50 (HLA DRB1*12:01): 756 nM | IC50 (HLA DRB1*04:01): 3660 nM | IC50 (HLA DRB1*07:01): 1.6 nM | IC50 (HLA DRB1*01:01): 7360 nM | IC50 (HLA DRB1*15:01): 770 nM

CC(C)C[C@H](NC(=O)[C@H](CCCNC(=N)N)NC(=O)[C@H](Cc1ccc(O)cc1)NC(=O)[C@H](Cc1ccccc1)NC(=O)[C@H](CCCNC(=N)N)NC(=O)[C@H](Cc1c[nH]cn1)NC(=O)[C@H](CO)NC(=O)[C@H](CC(C)C)NC(=O)[C@H](CO)NC(=O)[C@H](CS)NC(=O)[C@H](CS)NC(=O)[C@@H](NC(=O)[C@@H](NC(=O)[C@H](Cc1c[nH]cn1)NC(=O)[C@@H](N)CCCCN)[C@@H](C)O)[C@@H](C)O)C(=O)O [NSP12_129]
IC50 (HLA DRB1*03:01): 916 nM | IC50 (HLA DRB1*04:05): 644 nM | IC50 (HLA DRB1*11:01): 235 nM | IC50 (HLA DRB1*13:02): 1170 nM | IC50 (HLA DRB1*09:01): 286 nM | IC50 (HLA DRB1*08:02): 1010 nM | IC50 (HLA DRB1*12:01): 59 nM | IC50 (HLA DRB1*04:01): 613 nM | IC50 (HLA DRB1*07:01): 56 nM | IC50 (HLA DRB1*01:01): 279 nM | IC50 (HLA DRB1*15:01): 447 nM

CC(C)C[C@H](NC(=O)[C@H](CCCNC(=N)N)NC(=O)[C@H](Cc1ccc(O)cc1)NC(=O)[C@H](Cc1ccccc1)NC(=O)[C@@H](N)CCCNC(=N)N)C(=O)N[C@@H](C)C(=O)N[C@@H](CC(N)=O)C(=O)N[C@@H](CCC(=O)O)C(=O)N[C@@H](CS)C(=O)N[C@@H](C)C(=O)N[C@@H](CCC(N)=O)C(=O)N[C@H](C(=O)N[C@@H](CC(C)C)C(=O)N[C@@H](CO)C(=O)N[C@@H](CCC(=O)O)C(=O)O)C(C)C [NSP12_131]
IC50 (HLA DRB1*03:01): 8410 nM | IC50 (HLA DRB1*04:05): 270 nM | IC50 (HLA DRB1*11:01): 367 nM | IC50 (HLA DRB1*13:02): 23800 nM | IC50 (HLA DRB1*09:01): 48 nM | IC50 (HLA DRB1*08:02): 2350 nM | IC50 (HLA DRB1*12:01): 6320 nM | IC50 (HLA DRB1*04:01): 27 nM | IC50 (HLA DRB1*07:01): 279 nM | IC50 (HLA DRB1*01:01): 53 nM | IC50 (HLA DRB1*15:01): 611 nM

CSCC[C@H](NC(=O)[C@@H](NC(=O)[C@@H]1CCCN1C(=O)[C@H](CC(C)C)NC(=O)[C@H](CC(N)=O)NC(=O)[C@H](Cc1ccc(O)cc1)NC(=O)[C@H](CCCNC(=N)N)NC(=O)[C@H](Cc1ccc(O)cc1)NC(=O)[C@H](Cc1ccc(O)cc1)NC(=O)[C@H](CC(=O)O)NC(=O)[C@H](Cc1ccc(O)cc1)NC(=O)[C@H](CC(=O)O)NC(=O)[C@@H](N)CO)[C@@H](C)O)C(=O)N[C@@H](CS)C(=O)N[C@@H](CC(=O)O)C(=O)O [Peptide 91]
IC50 (HLA DRB1*04:05): 3280 nM | IC50 (HLA DRB1*11:01): 18200 nM | IC50 (HLA DRB1*13:02): 13600 nM | IC50 (HLA DRB1*09:01): 1430 nM | IC50 (HLA DRB1*08:02): 3510 nM | IC50 (HLA DRB1*12:01): 29600 nM | IC50 (HLA DRB1*04:01): 830 nM | IC50 (HLA DRB1*07:01): 549 nM | IC50 (HLA DRB1*01:01): 6670 nM | IC50 (HLA DRB1*15:01): 1480 nM

CC[C@H](C)[C@H](NC(=O)[C@H](CCSC)NC(=O)[C@H](CCSC)NC(=O)[C@H](CO)NC(=O)[C@H](Cc1ccccc1)NC(=O)[C@H](Cc1c[nH]cn1)NC(=O)[C@H](CCCCN)NC(=O)[C@H](CCCNC(=N)N)NC(=O)[C@H](CC(C)C)NC(=O)[C@H](Cc1ccc(O)cc1)NC(=O)[C@H](C)NC(=O)[C@@H](N)Cc1ccc(O)cc1)C(=O)N[C@@H](CC(C)C)C(=O)N[C@@H](CO)C(=O)N[C@@H](CC(=O)O)C(=O)O [Peptide 150]
IC50 (HLA DRB1*03:01): 5020 nM | IC50 (HLA DRB1*04:05): 318 nM | IC50 (HLA DRB1*11:01): 7.9 nM | IC50 (HLA DRB1*13:02): 755 nM | IC50 (HLA DRB1*09:01): 4.8 nM | IC50 (HLA DRB1*08:02): 138 nM | IC50 (HLA DRB1*12:01): 96 nM | IC50 (HLA DRB1*04:01): 102 nM | IC50 (HLA DRB1*07:01): 0.73 nM | IC50 (HLA DRB1*01:01): 495 nM | IC50 (HLA DRB1*15:01): 0.23 nM

— publication PMC10196118, “Evidence for broad cross-reactivity of the SARS-CoV-2 NSP12-directed CD4^+ T-cell response with pre-primed responses directed against common cold coronaviruses” (Frontiers in Immunology, 2023)
